Data as given in patent US12077503B2, “Substituted cyclic amides and their use as herbicides” (FMC CORPORATION, priority 2015, dated 2024).

Legend:
Type in all cases: in vivo
[1] = test system: green foxtail (Setaria viridis); test: Test A preemergence; details: Preemergence
Outline: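 Preemergence directed soil spray on seeded pots, or postemergence application to plants 2–10 cm, one- to two-leaf. Solvent mixture non-phytotoxic, with surfactant. Scored ~10 d later, visually, 0–100 vs untreated.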

[2] = test system: lambsquarters (Chenopodium album); test: Test D preemergence; details: scale 0 to 100
Outline: (§1)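 Test chemicals, formulated in a non-phytotoxic solvent blend including surfactant, are applied preemergence to seeded silt loam soil. Response is judged visually against controls after approximately 21 d in a controlled environment, on a scale where 0 is no effect and 100 is complete control.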

[3] = test system: barley, winter (winter barley Hordeum vulgare); test: Test D preemergence; details: scale 0 to 100
Outline: as §1

[4] = test system: windgrass (Apera spica-venti); test: Test D preemergence; details: scale 0 to 100
Outline: as §1

[5] = test system: blackgrass (Alopecurus myosuroides); test: Test D preemergence; details: scale 0 to 100
Outline: as §1

[6] = test system: field poppy (Papaver rhoeas); test: Test D preemergence; details: scale 0 to 100
Outline: as §1

[7] = test system: field violet (Viola arvensis); test: Test D preemergence; details: scale 0 to 100
Outline: as §1

[8] = test system: canarygrass (littleseed canarygrass, Phalaris minor); test: Test D preemergence; details: scale 0 to 100
Outline: as §1

[9] = test system: bluegrass (annual bluegrass, Poa annua); test: Test D preemergence; details: scale 0 to 100
Outline: as §1

[10] = test system: foxtail, green (green foxtail, Setaria viridis); test: Test D preemergence; details: scale 0 to 100
Outline: as §1

[11] = test system: beggarticks (hairy beggarticks, Bidens pilosa); test: Test E preemergence; details: scale 0 to 100
Description: Seeds of plant species selected from corn (Zea mays), soybean (Glycine max), velvetleaf (Abutilon theophrasti), lambsquarters (Chenopodium album), poinsettia, wild (wild poinsettia, Euphorbia heterophylla), pigweed, palmer (palmer pigweed, Amaranthus palmeri), waterhemp (common waterhemp, Amaranthus rudis), surinam grass (Brachiaria decumbens), crabgrass, large (large crabgrass, Digitaria sangumnalis), crabgrass, Brazil (Brazilian crabgrass, Digitaria horizontalis), Panicum, fall (fall Panicum, Panicum dichotomiflorum), foxtail, giant (giant foxtail, Setaria faberii), foxtail, green (green foxtail, Setaria viridis), goosegrass (Eleusine indica), johnsongrass (Sorghum halepense), ragweed (common ragweed, Ambrosia elatior), barnyardgrass (Echinochloa crus-galli), sandbur (southern sandbur, Cenchrus echinatus), arrowleaf Sida (Sida rhombifolia), ryegrass, Italian (Italian ryegrass, Lolium multiflorum), dayflower, VA (Virginia dayflower, Commelina virginica), field bindweed (Convolvulus arvensis), morningglory (Ipomoea coccinea), nightshade (eastern black nightshade, Solanum ptycanthum), Kochia (Kochia scoparia), nutsedge, yellow (yellow nutsedge, Cyperus esculentus), horseweed (Conyza canadensis), and beggarticks (hairy beggarticks, Bidens pilosa), were planted into a silt loam soil and treated preemergence with test chemicals formulated in a non-phytotoxic solvent mixture which included a surfactant.
At the same time, plants selected from these crop and weed species were planted in pots containing Sunshine Redi-Earth planting medium comprising spaghnum peat moss, vermiculite, starter nutrients and dolomitic limestone and treated with postemergence applications of a test chemical formulated in the same manner. Plants ranged in height from 2 to 18 cm (1- to 4-leaf stage) for postemergence treatments. Treated plants and controls were maintained in a greenhouse for 14 to 21 d, after which time all species were compared to controls and visually evaluated. Plant response ratings, summarized in Table E, are based on a scale of 0 to 100 where 0 is no effect and 100 is complete control. A dash (-) response means no test result.

SMILES: CN1C[C@H](c2csc3c2CCC(F)(F)C3)[C@@H](C(=O)Nc2ccccc2S(C)(=O)=O)C1=O (racemic) [Compound 1367]
- Foxtail, Green plant response rating ([1]; 31 g ai/ha, 0 to 100 scale where 0 is no effect and 100 is complete control): 0
- Plant response rating, Foxtail, Green ([1]; 125 g ai/ha, 0 to 100 scale (0 no effect, 100 complete control)): 60

SMILES: CN1CC(c2ccc(C(F)(F)F)cc2)C(C(=O)Nc2ccccc2S(C)(=O)=O)C1=O (stereo not shown) [Compound 624]
- Plant response rating: Lambsquarters ([2]; 31 g ai/ha): 0
- Plant response rating: Lambsquarters ([2]; 62 g ai/ha): 70
- Plant response rating: Lambsquarters ([2]; 125 g ai/ha): 35
- Plant response rating: Lambsquarters ([2]; 250 g ai/ha): 60
- Plant response rating: Barley, Winter ([3]; 31 g ai/ha): 0
- Plant response rating: Barley, Winter ([3]; 62 g ai/ha): 0
- Plant response rating: Barley, Winter ([3]; 125 g ai/ha): 0
- Plant response rating: Barley, Winter ([3]; 250 g ai/ha): 40
- Plant response rating: Windgrass ([4]; 31 g ai/ha): 15
- Plant response rating: Windgrass ([4]; 62 g ai/ha): 25
- Plant response rating: Windgrass ([4]; 125 g ai/ha): 85
- Plant response rating: Windgrass ([4]; 250 g ai/ha): 95
- Plant response rating: Blackgrass ([5]; 31 g ai/ha): 5
- Plant response rating: Blackgrass ([5]; 62 g ai/ha): 5
- Plant response rating: Blackgrass ([5]; 125 g ai/ha): 15
- Plant response rating: Blackgrass ([5]; 250 g ai/ha): 85
- Plant response rating: Field Poppy ([6]; 31 g ai/ha): 15
- Plant response rating: Field Poppy ([6]; 62 g ai/ha): 25
- Plant response rating: Field Poppy ([6]; 125 g ai/ha): 100
- Plant response rating: Field Poppy ([6]; 250 g ai/ha): 100
- Plant response rating: Field Violet ([7]; 31 g ai/ha): 10
- Plant response rating: Field Violet ([7]; 62 g ai/ha): 10
- Plant response rating: Field Violet ([7]; 125 g ai/ha): 10
- Plant response rating: Field Violet ([7]; 250 g ai/ha): 10
- Plant response rating: Canarygrass ([8]; 31 g ai/ha): 0
- Plant response rating: Canarygrass ([8]; 62 g ai/ha): 15
- Plant response rating: Canarygrass ([8]; 125 g ai/ha): 25
- Plant response rating: Canarygrass ([8]; 250 g ai/ha): 45
- Plant response rating: Bluegrass ([9]; 31 g ai/ha): 10
- Plant response rating: Bluegrass ([9]; 62 g ai/ha): 25
- Plant response rating: Bluegrass ([9]; 125 g ai/ha): 55
- Plant response rating: Bluegrass ([9]; 250 g ai/ha): 65
- Plant response rating: Foxtail, Green ([10]; 31 g ai/ha): 40
- Plant response rating: Foxtail, Green ([10]; 62 g ai/ha): 50
- Plant response rating: Foxtail, Green ([10]; 125 g ai/ha): 90
- Plant response rating: Foxtail, Green ([10]; 250 g ai/ha): 95
- Plant response rating: Beggarticks ([11]; 31 g ai/ha): 20
- Plant response rating: Beggarticks ([11]; 62 g ai/ha): 25
- Plant response rating: Beggarticks ([11]; 125 g ai/ha): 40
- Plant response rating: Beggarticks ([11]; 250 g ai/ha): 50

SMILES: CN1CC(c2cccc(C(F)(F)F)c2)C(C(=O)Nc2ccccc2S(C)(=O)=O)C1=O (stereo not shown) [Compound 637]
- Plant response rating: Lambsquarters ([2]; 31 g ai/ha): 50
- Plant response rating: Lambsquarters ([2]; 62 g ai/ha): 60
- Plant response rating: Lambsquarters ([2]; 125 g ai/ha): 40
- Plant response rating: Lambsquarters ([2]; 250 g ai/ha): 75
- Plant response rating: Barley, Winter ([3]; 31 g ai/ha): 0
- Plant response rating: Barley, Winter ([3]; 62 g ai/ha): 0
- Plant response rating: Barley, Winter ([3]; 125 g ai/ha): 50
- Plant response rating: Barley, Winter ([3]; 250 g ai/ha): 60
- Plant response rating: Windgrass ([4]; 31 g ai/ha): 10
- Plant response rating: Windgrass ([4]; 62 g ai/ha): 25
- Plant response rating: Windgrass ([4]; 125 g ai/ha): 85
- Plant response rating: Windgrass ([4]; 250 g ai/ha): 95
- Plant response rating: Blackgrass ([5]; 31 g ai/ha): 10
- Plant response rating: Blackgrass ([5]; 62 g ai/ha): 10
- Plant response rating: Blackgrass ([5]; 125 g ai/ha): 45
- Plant response rating: Blackgrass ([5]; 250 g ai/ha): 50
- Plant response rating: Field Poppy ([6]; 31 g ai/ha): 100
- Plant response rating: Field Poppy ([6]; 62 g ai/ha): 100
- Plant response rating: Field Poppy ([6]; 125 g ai/ha): 100
- Plant response rating: Field Poppy ([6]; 250 g ai/ha): 100
- Plant response rating: Field Violet ([7]; 31 g ai/ha): 0
- Plant response rating: Field Violet ([7]; 62 g ai/ha): 0
- Plant response rating: Field Violet ([7]; 125 g ai/ha): 0
- Plant response rating: Field Violet ([7]; 250 g ai/ha): 0
- Plant response rating: Canarygrass ([8]; 31 g ai/ha): 0
- Plant response rating: Canarygrass ([8]; 62 g ai/ha): 0
- Plant response rating: Canarygrass ([8]; 125 g ai/ha): 50
- Plant response rating: Canarygrass ([8]; 250 g ai/ha): 70
- Plant response rating: Bluegrass ([9]; 31 g ai/ha): 5
- Plant response rating: Bluegrass ([9]; 62 g ai/ha): 25
- Plant response rating: Bluegrass ([9]; 125 g ai/ha): 75
- Plant response rating: Bluegrass ([9]; 250 g ai/ha): 100
- Plant response rating: Foxtail, Green ([10]; 31 g ai/ha): 75
- Plant response rating: Foxtail, Green ([10]; 62 g ai/ha): 80
- Plant response rating: Foxtail, Green ([10]; 125 g ai/ha): 95
- Plant response rating: Foxtail, Green ([10]; 250 g ai/ha): 100
- Plant response rating: Beggarticks ([11]; 31 g ai/ha): 0
- Plant response rating: Beggarticks ([11]; 62 g ai/ha): 0
- Plant response rating: Beggarticks ([11]; 125 g ai/ha): 0
- Plant response rating: Beggarticks ([11]; 250 g ai/ha): 0
